Test results as given in the NIST ThermoML archive (doi:10.1021/acs.jced.9b00246).
Numbers after ± are expanded uncertainties.

Assay: an = ratio of the nth substance listed
Conditions: 101.3 kPa, Liquid; for viscosity: Concentric cylinders viscometry; for mass density: Vibrating tube method

CCN.Cl [ethylammonium chloride] + NC(N)=O
Conditions	mass density, 313.2 K [kg/m3]	mass density, 323.2 K [kg/m3]	mass density, 333.2 K [kg/m3]	mass density, 343.2 K [kg/m3]	mass density, 353.2 K [kg/m3]	viscosity, 313.2 K [mPa·s]	viscosity, 323.2 K [mPa·s]	viscosity, 333.2 K [mPa·s]	viscosity, 343.2 K [mPa·s]	viscosity, 353.2 K [mPa·s]
a2 = 0.5	1103.2 ± 3.4	1098.1 ± 3.3	1093.11 ± 3.3	1088.05 ± 3.2	1083.06 ± 3.2	97.8 ± 9	69.6 ± 5.1	50.8 ± 4.2	40.9 ± 4	34.8 ± 4
a2 = 1	1141.67 ± 3.4	1135.99 ± 3.3	1130.4 ± 3.2	1124.89 ± 3.2	1119.43 ± 3.2	197.7 ± 5.6	110.1 ± 4.6	68.3 ± 4.1	47.6 ± 4.1	34.8 ± 4
a2 = 1.94	1178.75 ± 5	1172.79 ± 5	1166.88 ± 4.9	1160.96 ± 4.8	1155.08 ± 4.8	105.5 ± 12	67.5 ± 6.2	49.2 ± 4.6	37.5 ± 4.2	28.7 ± 4.1
